# In US5124351A, “Pharmaceutical compositions for the treatment of cancers susceptible to treatment with the copper complex of S-(methylthio)-DL-homocysteine or the L-enantimorph thereof” (The United States of America as represented by the …, priority 1989, dated 1992):
# pIC50: −log10 of the molar value. Read-outs that look alike come from different tables or passages of the source.
# Columns and labels:
# L1210 cells [1] = assay: Inhibition of growth of L1210 cells in culture (growth fraction); format: cell-based, murine; conditions: for protection from growth inhibition by copper-SMETH: copper-SMETH 15 and 30 μM; for pIC50: potentiation of growth inhibition by DL-SMETH 75 or 100 μM, estimated by interpolation, read-out: Conc. for 50% further inhibition; for potentiation of SMETH by other metal ions: 10 μM; for stereospecificity result with 10 μM copper sulfate: 10 μM instead of 50 μM copper; for activity at 50 µM: L1210, L-SMETH 50 μM, read-out: growth (percent of control)
# Description: Cytotoxicity of SMETH was assessed as follows. Cells were harvested at mid-log phase (8-10×10^5 cells/ml) washed with fresh growth medium and resuspended at 1×10^5 cells per ml as determined by a model ZBI Coulter Counter (Coulter Electronics, Hialeah, Fla.). Suspensions (7 ml) were added to 25 cm^2 Corning flasks, and SMETH, 20 mM in water, with or without copper sulfate, 2 mM in water were added as dilutions in water at no greater than 10 μl/ml of the cell suspension.
# (§1) Cells were grown at 37° C. for designated times in tightly stoppered flasks and cell density was determined as indicated above. Cell volume distribution was monitored with a C1000 Channelyzer with standard size latex particles (Coulter) as reference. The results are expressed as growth fraction (N--No/No) or as percent growth fraction compared to appropriate controls.
# (The cells also were incubated for 40 hours).
# 1 with S-(methylthio)-DL-homocysteine DL-SMETH, (See curve .smallcircle.--.smallcircle. in FIG. 4) and with the pure L-enantiomorph, L-SMETH, (See curve -- in FIG. 4).
# lymphoblasts = conditions: with added adenosine and deoxycoformycin; cited from earlier work
# cellular methylations = conditions: cited from earlier work
# purine biosynthesis = conditions: literature; cited from earlier work
# methionine metabolism = conditions: via its adenosyl derivative; cited from earlier work
# endothelial cell = conditions: via copper catalyzed hydrogen peroxide generation; cited from earlier work
# [2] = system: L1210 cells in primary culture; assay: Growth of L1210 cells in primary culture (obtained directly from the mouse) with copper; format: cell-based
# Description: (The cells also were incubated for 40 hours). (See FIG. 3 of Mohindru, A., Fisher, J. M., and Rabinovitz, M. "2,9-Dimethyl-1,10-phenanthroline (neocuproine): A Potent, Copper-dependent Cytotoxin With Anti-tumor Activity.)" A concentration of 10 μM was more than adequate as a potentiating dose, but at this concentration other metal ions (Zn^++, Mn^++, CO^++, Ni^++, Cr^+++) were ineffective. […] Such cells fail to grow unless supplemented with an appropriate mercaptan or disulfide (See curve .smallcircle.--.smallcircle. in FIG. 3). […] Thus, both the organic and inorganic moieties of this invention show high specificity in this inhibition.
# L1210 cells [3] = assay: Cell volume of L1210 cells (Channelyzer); format: cell-based, murine; conditions: growth inhibition
# Description: as §1
# (To obtain the data in FIG. 5, the cells were incubated with S-(methylthio)-L-homocysteine 15 μM, (curve .smallcircle.--.smallcircle.) and 30 μM (curve -- )together with their corresponding concentrations of copper sulfate). […] To obtain the data in FIG. 6, the cells were incubated for 14 hours in the medium described in the above section entitled Growth And Its Inhibition In Cell Culture, but containing only 1 mM glutamine, 1/2 the normal concentration. […] At the end of the incubation, the cell density in the inhibited culture was determined, and &he entire population centrifuged for analysis. An aliquot containing an equal number of cells from the control culture was removed for comparison, and both samples processed and analyzed as described in the above section entitled Analysis of Nucleoside Triphosphate Pools. […]
# To obtain the data in FIG. 7, cells were incubated under standard conditions with S-(methylthio)-L -homocysteine and copper sulfate, each 15 μM, and cell volume monitored during the course of the incubation. […]
# [4] = Cecil and McPhee; cited from earlier work
molecule,measurement,setting,value
Nc1ccn([C@@H]2O[C@H](CO)[C@@H](O)[C@H]2O)c(=O)n1 [Cytidine],protection from growth inhibition by copper-SMETH,L1210 cells [1],"protected the cells from growth inhibition, and this protection was non-competitive"
Nc1ncnc2c1ncn2[C@@H]1O[C@H](CO)[C@@H](O)[C@H]1O [Adenosine],toxicity of adenosine,L1210 cells [1]; 10 μM alone,not toxic to L1210 cells
same,toxicity of adenosine with L-homocysteinethiolactone,L1210 cells [1]; 10 μM with non-toxic concentration of L-homocysteinethiolactone,toxic when added together with a non-toxic concentration of L-homocysteinethiolactone
same,effect of adenosine on SMETH potency,L1210 cells [1]; toxic dose of SMETH,did not increase the potency of a toxic dose of SMETH
N[C@H]1CCSC1=O [L-Homocysteine Thiolactone],growth block,lymphoblasts,can block growth
same,percent inhibition,"L1210 cells [1]; L-homocysteine thiolactone 200 μM plus adenosine 10 μM, deoxycoformycin 20 μM",39%
same,inhibition at 200 µM,"L1210 cells [1]; Mus musculus, L1210, L-homocysteine thiolactone 200 μM alone, read-out: percent inhibition",5%
NC(=O)CC[C@H](N)C(=O)O [Glutamine],protection against SMETH and SMETH plus Cu++,"L1210 cells [1]; glutamine, millimolar concentrations",protected cells against SMETH and SMETH plug Cu^++
Nc1ncnc2c1ncn2[C@@H]1O[C@H](CSCC[C@H](N)C(=O)O)[C@@H](O)[C@H]1O [S-adenosylhomocysteine],inhibition of cellular methylations,cellular methylations,potent inhibitor of cellular methylations
same,inhibition of cellular methylations,cellular methylations; listed as Adenosylhomocysteine,potent inhibitor of cellular methylation processes
CCCC[C@H](N)C(=O)O [L-Norleucine],pIC50,L1210 cells [1],2.60
[Ni+2] [Ni^++],potentiation of SMETH by other metal ions,L1210 cells [1],ineffective
CCSC[C@H](N)C(=O)O [S-Ethyl-L-cysteine],pIC50,L1210 cells [1],3.00
[Mn+2] [Mn^++],potentiation of SMETH by other metal ions,L1210 cells [1],ineffective
CSCC[C@H](N)C(=O)O [L-Methionine],pIC50,L1210 cells [1],2.70
"[N-]=[N+]=CC(=O)CC[C@H](N)C(=O)O [diazo-oxo-norleucine, 6-diazo-5-oxo-norleucine]",sites blocked in purine biosynthesis,purine biosynthesis,also block some sites in purine biosynthesis
N[C@@H](CCS)C(=O)O [Homocysteine],toxicity by blocking methionine metabolism,methionine metabolism,toxic by blocking methionine metabolism
same,endothelial cell damage,endothelial cell,promote endothelial cell damage
"CSSC[C@H](N)C(=O)O [4-thiamethionine, S-(methylthio)-L-cysteine]",growth support with copper ion,[2]; 4TM 50 μM,supported growth which was independent of copper ion concentration
same,cytotoxicity in the presence of copper,[2]; L1210 primary culture,not cytotoxic in the presence of copper
same,protection from growth inhibition by copper,[2]; L1210 primary culture,protected L1210 cells in primary culture from growth inhibition by copper
"O=S(=O)([O-])[O-].[Cu+2] [copper ion, copper sulfate]",toxicity of the ion itself,"L1210 cells [1]; copper ion alone, at much higher levels than micromolar potentiating levels",non -toxic itself at much higher levels
same,potentiating dose of copper ion,"L1210 cells [1]; with SMETH, 40 hours, ""more than adequate""",≤ 10 µM
[Zn+2] [Zn^++],potentiation of SMETH by other metal ions,L1210 cells [1],ineffective
"CSSCCC(N)C(=O)O (racemic) [DL-SMETH, S-(methylthio)-DL-homocysteine]",cell volume change over a two day period,L1210 cells [3],progressive increase in cell volume
same,inhibition of cellular proliferation,L1210 cells [1],potent inhibitor of cellular proliferation
same,stereospecificity result with 10 μM copper sulfate,L1210 cells [1],nearly identical results
same,range of inhibitory concentration of SMETH with copper ion,"L1210 cells [1]; 40 hours, copper ion present",both reduced and narrowed in the presence of copper ion
same,percent inhibition,L1210 cells [1]; DL-SMETH 75 μm alone,46%
same,percent inhibition,"L1210 cells [1]; DL-SMETH 75 μm plus adenosine 10 μm, deoxycoformycin 20 μm",46%
same,minimal effective concentration,"L1210 cells [1]; Mus musculus, L1210, 40 hours, without copper, read-out: threshold level",25 µM
same,cytotoxicity to L1210 cells,"L1210 cells [1]; alone, 40 hours",cytotoxic to L1210 cells in culture when present at a broad range of micromolar concentrations
same,relative activity of racemic form (vs D-SMETH as printed),L1210 cells [1]; copper ion 50 μM,half as active as D-SMETH
same,effect of copper ion on inhibition by SMETH,"L1210 cells [1]; threshold SMETH 25 μM with micromolar copper ion, 40 hours",completely inhibitory concentration
[N-]=[N+]=CC(=O)OC[C@H](N)C(=O)O [azaserine],sites blocked in purine biosynthesis,purine biosynthesis,also block some sites in purine biosynthesis
DL-Isopropionine,pIC50,L1210 cells [1],2.70
N[C@@H](CCSSCC[C@H](N)C(=O)O)C(=O)O [homocystine],rate of reaction with silver ion relative to cystine,[4],267 times
"OCCSSCCO [Hydroxyethyl Disulfide (HEDS), Hydroxyethyl Disulfide]",growth promotion and its inhibition by copper,[2]; high copper concentrations,"promoted growth, but this was inhibited by high copper concentrations"
[Co+2] [CO^++],potentiation of SMETH by other metal ions,L1210 cells [1],ineffective
"N[C@H](C(=O)O)[C@@H]1CC(Cl)=NO1 [acivicin, (alphaS,5S)-alpha-amino-3-chloro-4,5-dihydro-5-isoxazoleacetizacid]",sites blocked in purine biosynthesis,purine biosynthesis,also block some sites in purine biosynthesis
CC(C)C[C@H](N)C(=O)O [L-Leucine],pIC50,L1210 cells [1],3.00
[Cr+3] [Cr^+++],potentiation of SMETH by other metal ions,L1210 cells [1],ineffective
O=c1ccn([C@@H]2O[C@H](CO)[C@@H](O)[C@H]2O)c(=O)[nH]1 [Uridine],protection from growth inhibition by copper-SMETH,L1210 cells [1],ineffective in such protection
CSSCC[C@@H](N)C(=O)O [D-SMETH],activity of D-SMETH,L1210 cells [1]; 50 μM with 50 μM copper ion,completely inactive
"CSSCC[C@H](N)C(=O)O [L-SMETH, S-(methylthio)-L-homocysteine]",stereospecificity result with 10 μM copper sulfate,L1210 cells [1],nearly identical results
same,activity at 50 µM,"L1210 cells [1]; Mus musculus, glutamine 0.5 mM",15%
same,activity at 50 µM,"L1210 cells [1]; Mus musculus, glutamine 1.0 mM",31%
same,activity at 50 µM,"L1210 cells [1]; Mus musculus, glutamine 2.0 mM",58%
same,activity at 50 µM,"L1210 cells [1]; Mus musculus, glutamine 4.0 mM",98%
Nc1nc2c(ncn2[C@@H]2O[C@H](CO)[C@@H](O)[C@H]2O)c(=O)[nH]1 [guanosine],protection from growth inhibition by copper-SMETH,L1210 cells [1],ineffective in such protection
